Results published in patent publication US20060111305A1, “Metabolites of certain [1,4]diazepino[6,7,1-ij]quinoline derivatives and methods of preparation and use thereof” (Wyeth, priority 2004, published 2006).
Read-outs that look alike come from different tables or passages of the source. Marks after values point to notes of the source that are not given here.

Key:
[1] = Rat urinary excretion and metabolite profiles after single oral 5 mg/kg [14C]DCDQ; format: in vivo, Sprague-Dawley rats; details: for Chromatographic distribution of radioactivity in male rat urine / Percentage of dose for urinary metabolites in rats: oral 5 mg/kg, mean n = 3; for radioactive dose recovered in urine: male rats
Description: At sacrifice, blood samples were collected by cardiac puncture into tubes containing EDTA as the anticoagulant and placing them on ice. Aliquots of 50 μL were removed for combustion and determination of radioactivity content. Plasma was immediately obtained from the remaining blood by centrifugation at 4° C. Brains were excised after perfusion with 50 mL of chilled sterile saline. Urine samples were collected on dry ice at intervals of 0-8 and 8-24 hour post-dosing. Feces were collected at intervals of 0-8 and 8-24 hr post-dosing at room temperature and were homogenized as described previously. The biological specimens and aliquots of the dosing solution at pre- and post-dose were stored at approximately −70° C. until analyzed.
Plasma (20 μL) and urine (50 μL) aliquots were analyzed for radioactivity concentrations. Radioactivity determinations of dose, plasma and urine were made with a Tri-Carb Model 3100 TR/LL liquid scintillation counter (LSC) (Perkin Elmer) using 10 mL of Ultima Gold as the scintillation fluid.
Urine was analyzed for radioactivity concentration as and analyzed for metabolite profiles by direct injection onto the HPLC column. LC/MS analyses for metabolite identification were also carried out with urine samples.
(§1) A Waters model 2690 HPLC system (Waters Corp., Milford, Mass.) with a built-in autosampler was used for analysis. Separations were accomplished on a Phenomenex Luna C18(2) column (150×2.0 mm, 5 μm) (Phenomenex, Torrance, Calif.). The sample chamber of the autosampler was maintained at 4° C., while the column was at ambient temperature of about 20° C. A variable wavelength UV detector set to monitor 250 nm and a Flo-One β Model A525 radioactivity detector described above were used for data acquisition. The HPLC mobile phase consisted of 10 mM ammonium acetate, pH 4.5 (A) and methanol (B), and was delivered at 0.2 mL/min. Chromatographic condition A was used for dose analysis, while condition B was used for analysis of urine and plasma, brain and fecal extracts.

[2] = Rat plasma metabolite profiles after single oral 5 mg/kg [14C]DCDQ; format: in vivo, Sprague-Dawley rats; details: for concentration at 2 h / concentration at 8 h / concentration at 4 h: Sprague-Dawley, rat, plasma, mean n = 3, read-out: Estimated plasma concentration in rats
Description: Plasma samples were analyzed for metabolite profiles by HPLC. Aliquots of 1.5 mL plasma were mixed with 3.0 mL methanol, placed on ice for about 10 minutes, and then centrifuged. The supernatant was transferred to a clean tube. The protein pellets were extracted once with 3.0 mL methanol. The supernatants from precipitation and extraction of each sample were pooled, mixed, and evaporated at 22° C. under nitrogen in a Zymark TurboVap LV (Caliper Life Sciences, Hopkinton, Mass.) to about 0.3 mL. The concentrated extract was centrifuged, the supernatant volume measured and extraction efficiency was determined by analyzing duplicate 10 μL aliquots for radioactivity. An aliquot of the supernatant (50-200 μL) was analyzed by HPLC with radioactivity flow detection. Plasma extracts were also analyzed by LC/MS.
as §1

Row | SMILES | Chromatographic distribution of radioactivity in male rat urine ([1]; 0-8 hr) [%] | Percentage of dose for urinary metabolites in rats ([1]; 0-8 hr) [%] | Chromatographic distribution of radioactivity in male rat urine ([1]; 8-24 hr) [%] | Percentage of dose for urinary metabolites in rats ([1]; 8-24 hr) [%] | concentration at 2 h ([2]; female, 2 hr) [ng/mL] | concentration at 8 h ([2]; female, 8 hr) [ng/mL] | concentration at 2 h ([2]; male, 2 hr) [ng/mL] | concentration at 4 h ([2]; male, 4 hr) [ng/mL] | concentration at 8 h ([2]; male, 8 hr) [ng/mL] | Chromatographic distribution of radioactivity in rat plasma ([2]; female, 2 hr, mean n = 3) | Chromatographic distribution of radioactivity in rat plasma ([2]; female, 8 hr, mean n = 3) | Chromatographic distribution of radioactivity in rat plasma ([2]; male, 2 hr, mean n = 3) [%] | Chromatographic distribution of radioactivity in rat plasma ([2]; male, 4 hr, mean n = 3) [%] | Chromatographic distribution of radioactivity in rat plasma ([2]; male, 8 hr, mean n = 3) [%] | Percentage of dose for urinary metabolites in rats ([1]; 0-24 hr) [%] | Estimated plasma concentration in rats ([2]; female, 2 hr, mean n = 3) | radioactive dose recovered in urine ([1]; 0-8 hour period) [%] | radioactive dose recovered in urine ([1]; 8-24 hour period) [%] | radioactive dose recovered in urine ([1]; first 24 hours post-dose) [%]
1 | c1cc2c3c(c1)[C@H]1CCC[C@H]1CN3CCNC2 [DCDQ, (9aR,12aS)-4,5,6,7,9,9a,10,11,12,12a-decahydro-cyclopenta[c][1,4]diazepine[6,7,1-ij]quinoline, reference compound] | 1.29 | 0.42 | 1.46 | 0.51 | 132 | 49.4 | 86.9 | 90.8 | 58.7 | 20% | 15% | 14 | 14 | 13 | – | – | – | – | –
2 | c1cc2c3c(c1)[C@H]1CCC[C@H]1CN3CCNC2 [[^14C]DCDQ] | – | – | – | – | – | – | – | – | – | – | – | – | – | – | – | – | 32.5 | 34.2 | 66.7±5.0

More lines, main results first:

Row | Chromatographic distribution of radioactivity in male rat urine ([1]; 0-8 hr) [%] | Percentage of dose for urinary metabolites in rats ([1]; 0-8 hr) [%] | Chromatographic distribution of radioactivity in male rat urine ([1]; 8-24 hr) [%] | Percentage of dose for urinary metabolites in rats ([1]; 8-24 hr) [%] | concentration at 2 h ([2]; female, 2 hr) [ng/mL] | concentration at 8 h ([2]; female, 8 hr) [ng/mL] | concentration at 2 h ([2]; male, 2 hr) [ng/mL] | concentration at 4 h ([2]; male, 4 hr) [ng/mL] | concentration at 8 h ([2]; male, 8 hr) [ng/mL] | Chromatographic distribution of radioactivity in rat plasma ([2]; female, 2 hr, mean n = 3) | Chromatographic distribution of radioactivity in rat plasma ([2]; female, 8 hr, mean n = 3) | Chromatographic distribution of radioactivity in rat plasma ([2]; male, 2 hr, mean n = 3) [%] | Chromatographic distribution of radioactivity in rat plasma ([2]; male, 4 hr, mean n = 3) [%] | Chromatographic distribution of radioactivity in rat plasma ([2]; male, 8 hr, mean n = 3) [%] | Percentage of dose for urinary metabolites in rats ([1]; 0-24 hr) [%] | Estimated plasma concentration in rats ([2]; female, 2 hr, mean n = 3) | SMILES | radioactive dose recovered in urine ([1]; 0-8 hour period) [%] | radioactive dose recovered in urine ([1]; 8-24 hour period) [%] | radioactive dose recovered in urine ([1]; first 24 hours post-dose) [%]
3 | 26.9 | 8.67 | 22.5 | 7.74 | 12.6 | 6.52 | 88.4 | 59.7 | 41.9 | 2.0^d % | 1.9^d % | 14 | 9.1 | 8.9 | 16.4 | – | OC1CN2C[C@@H]3CCC[C@@H]3c3cccc(c32)CN1 (some centres unmarked) [Metabolite M1, hydroxy DCDQ] | – | – | –
4 | 9.51 | 3.16 | 5.83 | 1.94 | – | 4.4 | 32.3 | 22.6 | 20 | BQL | 1.5^e % | 5.2 | 3.4 | 4.3 | 5.09 | BQL | OC1[C@@H]2CCC[C@@H]2c2cccc3c2N1CCNC3 (some centres unmarked) [Metabolite M2, hydroxy DCDQ] | – | – | –
5 | 9.68 | 3.16 | 10.1 | 3.44 | 35.6 | 17.5 | 63.6 | 62.1 | 53 | 5.4^d % | 5.6% | 10 | 9.4 | 12 | 6.60 | – | O=C1CC[C@@H]2c3cccc4c3N(CCNC4)C[C@H]12 [Metabolite M7, 17-keto DCDQ] | – | – | –
